32 molecules from patent US20240051952A1, “HMOX1 INDUCERS” (Mitobridge Inc., priority 2019, published 2024) can be followed below.

The subject of this data set is Human Heme Oxygenase-1 (HMOX-1). In words: ELISA assay to measure human heme oxygenase-1 (HMOX-1) in HepG2 lysate. The class given is cell-based. The following applies: fold change of human HMOX1 protein levels relative to DMSO control, HepG2. Summed up:
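HepG2 cells lysed in PBS/0.5% Triton X-100/1 mM EDTA with protease inhibitors; lysate diluted 1:20. Sandwich ELISA: anti-HO-1 capture (8 μg/ml), biotinylated detection antibody (200 ng/ml), streptavidin-HRP, chemiluminescent read. Quantified against 12-point HO-1 standard curve from 20 ng/ml; incubations at 20 °C.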
For orientation: An ELISA detects its analyte on a solid surface through an enzyme-linked reagent.
As to `Cn1c(Nc2nc3ccc(OCCO)cc3o2)nc2cc(C(=O)NCCOCCO)ccc21` [Example 104, 2-((6-(2-hydroxyethoxy)benzo[d]oxazol-2-yl)amino)-N-(2-(2-hydroxyethoxy)ethyl)-1-methyl-1H-benzo[d]imidazole-5-carboxamide], the “Maximum Fold induction” value is given as 23.

Take `Cl.Cn1c(Nc2nc3ccc(OCCO)cc3o2)nc2cc(C(=O)NCCN)ccc21` [Example 105, N-(2-aminoethyl)-2-((6-(2-hydroxyethoxy)benzo[d]oxazol-2-yl)amino)-1-methyl-1H-benzo[d]imidazole-5-carboxamide hydrochloride]: the “Maximum Fold induction” value is reported as 36.

Regarding `Cn1c(Nc2nc3ccc(OCCO)cc3o2)nc2cc(C(=O)NCCNC3=NCCN3)ccc21` [Example 106, N-(2-((4,5-dihydro-1H-imidazol-2-yl)amino)ethyl)-2-((6-(2-hydroxyethoxy)benzo[d]oxazol-2-yl)amino)-1-methyl-1H-benzo[d]imidazole-5-carboxamide], the “Maximum Fold induction” value is given as 6.

With `Cn1c(Nc2nc3cc(F)c(C(F)(F)F)cc3o2)nc2cc(C(=O)O)ccc21` [Example 107, 2-((5-fluoro-6-(trifluoromethyl)benzo[d]oxazol-2-yl)amino)-1-methyl-1H-benzo[d]imidazole-5-carboxylic acid], the “Maximum Fold induction” value came out at 45.

For the molecule `Cn1c(Nc2nc3cc(F)c(C(F)(F)F)cc3o2)nc2cc(C(=O)NCCO)ccc21` [Example 108, 2-((5-fluoro-6-(trifluoromethyl)benzo[d]oxazol-2-yl)amino)-N-(2-hydroxyethyl)-1-methyl-1H-benzo[d]imidazole-5-carboxamide], the “Maximum Fold induction” value was found to be 29.

As to `COCCNC(=O)c1ccc2c(c1)nc(Nc1nc3cccnc3o1)n2C` [Example 109, N-(2-methoxyethyl)-1-methyl-2-(oxazolo[5,4-b]pyridin-2-ylamino)-1H-benzo[d]imidazole-5-carboxamide], the “Maximum Fold induction” value was determined as 26.

With `Cn1c(Nc2nc3cccnc3o2)nc2cc(C(=O)NCCO)ccc21` [Example 110, N-(2-hydroxyethyl)-1-methyl-2-(oxazolo[5,4-b]pyridin-2-ylamino)-1H-benzo[d]imidazole-5-carboxamide], the “Maximum Fold induction” value was determined as 60.

Take `Cn1c(Nc2nc3ncccc3o2)nc2cc(C(=O)O)ccc21` [Example 111, 1-methyl-2-(oxazolo[4,5-b]pyridin-2-ylamino)-1H-benzo[d]imidazole-5-carboxylic acid]: the “Maximum Fold induction” value is 3.

In the case of `COCCNC(=O)c1ccc2c(c1)nc(Nc1nc3ncccc3o1)n2C` [Example 112, N-(2-methoxyethyl)-1-methyl-2-(oxazolo[4,5-b]pyridin-2-ylamino)-1H-benzo[d]imidazole-5-carboxamide], the “Maximum Fold induction” value is given as 15.

As for `Cn1c(Nc2nc3ccc(C(F)(F)F)nc3o2)nc2cc(C(=O)NCCO)ccc21` [Example 113, N-(2-hydroxyethyl)-1-methyl-2-((5-(trifluoromethyl)oxazolo[5,4-b]pyridin-2-yl)amino)-1H-benzo[d]imidazole-5-carboxamide], the “Maximum Fold induction” value stood at 20.

Take `Cn1c(Nc2nc3nccnc3s2)nc2cc(C(=O)NCCOCCO)ccc21` [Example 114, N-(2-(2-hydroxyethoxy)ethyl)-1-methyl-2-(thiazolo[4,5-b]pyrazin-2-ylamino)-1H-benzo[d]imidazole-5-carboxamide]: the “Maximum Fold induction” value is 33.

Consider `Cn1c(Nc2nc3ccc(C4CC4)cc3o2)nc2cc(C(=O)O)ccc21` [Example 115, 2-((6-cyclopropylbenzo[d]oxazol-2-yl)amino)-1-methyl-1H-benzo[d]imidazole-5-carboxylic acid], for which the “Maximum Fold induction” value stood at 71.

Consider `COCCNC(=O)c1ccc2c(c1)nc(Nc1nc3ccc(C4CC4)cc3o1)n2C` [Example 116, 2-((6-cyclopropylbenzo[d]oxazol-2-yl)amino)-N-(2-methoxyethyl)-1-methyl-1H-benzo[d]imidazole-5-carboxamide], for which the “Maximum Fold induction” value is 32-38.

Take `Cn1c(Nc2nc3cccc(C(F)(F)F)c3o2)nc2cc(C(=O)NCCOCCO)ccc21` [Example 117, N-(2-(2-hydroxyethoxy)ethyl)-1-methyl-2-((7-(trifluoromethyl)benzo[d]oxazol-2-yl)amino)-1H-benzo[d]imidazole-5-carboxamide]: the “Maximum Fold induction” value is given as 38.

With `Cn1c(Nc2nc3cc(C(=O)NCCOCCO)ccc3o2)nc2ccccc21` [Example 118, N-(2-(2-hydroxyethoxy)ethyl)-2-((1-methyl-1H-benzo[d]imidazol-2-yl)amino)benzo[d]oxazole-5-carboxamide], the “Maximum Fold induction” value is reported as 24.

Consider `COCCONC(=O)c1ccc2c(c1)nc(Nc1nc3ccccc3o1)n2C` [Example 119, 2-(benzo[d]oxazol-2-ylamino)-N-(2-methoxyethoxy)-1-methyl-1H-benzo[d]imidazole-5-carboxamide], for which the “Maximum Fold induction” value is listed as 47-65.

Take `CC(O)CONC(=O)c1ccc2c(c1)nc(Nc1nc3ccccc3o1)n2C` (centres unmarked) [Example 120, 2-(benzo[d]oxazol-2-ylamino)-N-(2-hydroxypropoxy)-1-methyl-1H-benzo[d]imidazole-5-carboxamide]: the “Maximum Fold induction” value turned out to be 26.

For `CN(C)CC(=O)NCCONC(=O)c1ccc2c(c1)nc(Nc1nc3ccccc3o1)n2C` [Example 121, 2-(benzo[d]oxazol-2-ylamino)-N-(2-(2-(dimethylamino)acetamido)ethoxy)-1-methyl-1H-benzo[d]imidazole-5-carboxamide], the “Maximum Fold induction” value is 22-23.

As for `CN(C)CCONC(=O)c1ccc2c(c1)nc(Nc1nc3ccc(C(F)(F)F)cc3o1)n2C` [Example 122, N-(2-(dimethylamino)ethoxy)-1-methyl-2-((6-(trifluoromethyl)benzo[d]oxazol-2-yl)amino)-1H-benzo[d]imidazole-5-carboxamide], the “Maximum Fold induction” value is given as 51-67.

In the case of `CN(C)CCONC(=O)c1ccc2c(c1)nc(Nc1nc3ccccc3o1)n2C` [Example 123, 2-(benzo[d]oxazol-2-ylamino)-N-(2-(dimethylamino)ethoxy)-1-methyl-1H-benzo[d]imidazole-5-carboxamide], the “Maximum Fold induction” value was determined as 22.

For `COCCONC(=O)c1ccc2c(c1)nc(Nc1nc3ccc(C(F)(F)F)cc3o1)n2C` [Example 124, N-(2-methoxyethoxy)-1-methyl-2-((6-(trifluoromethyl)benzo[d]oxazol-2-yl)amino)-1H-benzo[d]imidazole-5-carboxamide], the “Maximum Fold induction” value is 31-52.

As to `Cn1c(Nc2nc3ccc(C(F)(F)F)cc3o2)nc2cc(C(=O)NOCCO)ccc21` [Example 125, N-(2-hydroxyethoxy)-1-methyl-2-((6-(trifluoromethyl)benzo[d]oxazol-2-yl)amino)-1H-benzo[d]imidazole-5-carboxamide], the “Maximum Fold induction” value is 32-59.

Turning to `Cn1c(Nc2nc3ccc(OC(F)(F)F)cc3o2)nc2cc(C(=O)NOCCO)ccc21` [Example 126, N-(2-hydroxyethoxy)-1-methyl-2-((6-(trifluoromethoxy)benzo[d]oxazol-2-yl)amino)-1H-benzo[d]imidazole-5-carboxamide], the “Maximum Fold induction” value is recorded as 33-37.

As to `COCCONC(=O)c1ccc2c(c1)nc(Nc1nc3ccc(OC(F)(F)F)cc3o1)n2C` [Example 127, N-(2-methoxyethoxy)-1-methyl-2-((6-(trifluoromethoxy)benzo[d]oxazol-2-yl)amino)-1H-benzo[d]imidazole-5-carboxamide], the “Maximum Fold induction” value was 27-36.

Take `COCCOc1ccc2nc(Nc3nc4cc(C(=O)NOCCO)ccc4n3C)oc2c1` [Example 128, N-(2-hydroxyethoxy)-2-((6-(2-methoxyethoxy)benzo[d]oxazol-2-yl)amino)-1-methyl-1H-benzo[d]imidazole-5-carboxamide]: the “Maximum Fold induction” value is on record as 48-75.

`Cn1c(Nc2nc3ccc(OCCO)cc3o2)nc2cc(C(=O)NOCCO)ccc21` [Example 129, N-(2-hydroxyethoxy)-2-((6-(2-hydroxyethoxy)benzo[d]oxazol-2-yl)amino)-1-methyl-1H-benzo[d]imidazole-5-carboxamide]: the “Maximum Fold induction” value was 54-58.

On to `Cn1c(Nc2nc3cc(F)c(C(F)(F)F)cc3o2)nc2cc(C(=O)NOCCO)ccc21` [Example 130, 2-((5-fluoro-6-(trifluoromethyl)benzo[d]oxazol-2-yl)amino)-N-(2-hydroxyethoxy)-1-methyl-1H-benzo[d]imidazole-5-carboxamide], for which the “Maximum Fold induction” value came out at 42.

Consider `CC1CCc2nc(Nc3nc4cc(C(=O)NOCCO)ccc4n3C)sc2C1` (centres unmarked) [Example 131, N-(2-hydroxyethoxy)-1-methyl-2-((6-methyl-4,5,6,7-tetrahydrobenzo[d]thiazol-2-yl)amino)-1H-benzo[d]imidazole-5-carboxamide], for which the “Maximum Fold induction” value is recorded as 35-62.

On to `COCCONC(=O)c1ccc2c(c1)nc(Nc1nc3ccc(C(C)=O)cc3o1)n2C` [Example 132, 2-((6-acetylbenzo[d]oxazol-2-yl)amino)-N-(2-methoxyethoxy)-1-methyl-1H-benzo[d]imidazole-5-carboxamide], for which the “Maximum Fold induction” value is recorded as 39.

In the case of `Cn1c(Nc2nc3ccc(C(C)(C)O)cc3o2)nc2cc(C(=O)NCCO)ccc21` [Example 133, N-(2-hydroxyethyl)-2-((6-(2-hydroxypropan-2-yl)benzo[d]oxazol-2-yl)amino)-1-methyl-1H-benzo[d]imidazole-5-carboxamide], the “Maximum Fold induction” value worked out at 17.

Regarding `Cn1c(Nc2nc3ccc(-c4cscn4)cc3o2)nc2cc(C(=O)NCCOCCO)ccc21` [Example 134, N-(2-(2-hydroxyethoxy)ethyl)-1-methyl-2-((6-(thiazol-4-yl)benzo[d]oxazol-2-yl)amino)-1H-benzo[d]imidazole-5-carboxamide], the “Maximum Fold induction” value is given as 42-70.

On to `CN1CC(c2ccc3nc(Nc4nc5cc(C(=O)NCCOCCO)ccc5n4C)oc3c2)OC1=O` (centres unmarked) [Example 135, N-(2-(2-hydroxyethoxy)ethyl)-1-methyl-2-((6-(3-methyl-2-oxooxazolidin-5-yl)benzo[d]oxazol-2-yl)amino)-1H-benzo[d]imidazole-5-carboxamide], for which the “Maximum Fold induction” value is listed as 1.
